Values of other authors, collected in patent publication US20130171256A1 (CIMA LABS Inc., priority 2010, published 2013).

How the values were obtained:
Details in all cases: preclinical studies
[1] = test system: neuronal norepinephrine reuptake
[2] = test system: neuronal serotonin reuptake
[3] = test system: dopamine reuptake

SMILES | inhibition of neuronal norepinephrine reuptake [1] | inhibition of neuronal serotonin reuptake [2] | inhibition of dopamine reuptake [3]
CN(C)CC(c1ccc(O)cc1)C1(O)CCCCC1 (centres unmarked) [O-desmethylvenlafaxine] | potent inhibitors | potent inhibitors | weak inhibitors
COc1ccc(C(CN(C)C)C2(O)CCCCC2)cc1 (centres unmarked) [Venlafaxine] | potent inhibitors | – | weak inhibitors
